Test results published in patent US9901549B2, “Method for treating vaginal dryness by administering transient receptor potential cation channel subfamily M member 8 (TRPM8) receptor agonists” (UNIVERSIDAD MIGUEL HERNÁNDEZ DE ELCHE, priority 2010, dated 2018).
Like-named read-outs stand apart in the source and are kept apart here.

What was measured:
[1] = target: T1, TRPM8 channels (Homo sapiens, UniProt Q7Z2W7); details: FL; data from Behrendt et al., 2004; cited from earlier work
[2] = tested on: cold-sensitive nerve terminals of the mouse cornea; experiment: Nerve terminal impulse (NTI) activity recorded in vitro from cold-sensitive nerve terminals of the cornea
Procedure: To define functionally the thermal sensitivity and encoding capacity of intact cold-sensitive nerve terminals, nerve terminal impulse (NTI) activity from the cornea of wild-type mice eyes was recorded ‘in vitro’ (Brock, J. A., et al., 1998. J. Physiol 512:211-217).
J. Neurosci. 26:12512-12525, Jordt, S. E. et al. 2004. Nature 427:260-265).

[3] = tested on: cold-sensitive nerve terminals of the mouse cornea; experiment: as above; remark: listed apart in the source
[4] = target: T1, TRPM8 channels; details: CI; data from Bodding et al., 2007; cited from earlier work
[5] = target: T1, TRPM8 channels; details: EP, cited from earlier work
[6] = tested on: eyes of TRPM8(−/−) and wild type mice; experiment: Tear flow (phenol red thread) after topical application to the eye; type: in vivo, mouse; details: capsaicin 1 μM, AITC 500 μM
Procedure: FIG. 4. Dependence of tear secretion rate on corneal temperature. a. […] Shaded and filled columns represent tearing rate in animals at mean neutral (28.4° C.) or hot temperature (42.5° C.), respectively. The number of measures of successive columns is 35, 11, 23, 9 and 6 observations **p<0.01, ***p<0.001 Mann-Whitney test). b. Increase in tearing rate measured in wild type animals (black columns) and TRPM8−/−(grey columns) elicited by application during 60 s, of a filter paper soaked in capsaicin 1 μM (n=12 and 15) or 500 μM allyl-isothyocyanate. […] Measurements of tear secretion were performed 1 minute after removing the paper with the drug. Statistically significant differences were found with respect to baseline lacrimation, using the Wilcoxon test (*p<0.05, ***p<0.001). c. Mean tearing rate expressed as the wetted length value of the phenol red thread, measured in the eyes of 11 human volunteers at environment temperatures of 18° C., 25° C. and 43° C. that lead to corneal surface temperatures of 32.4±0.4° C.; 34.2±0.1° C. and 36.0±0.2° C. respectively.
Next, it was reasoned that if tear production is associated to the neural activity of cold thermoreceptor fibers, basal tear flow should be reduced in TRPM8(−/−) mice, in which spontaneous activity is absent.

[7] = target: T2, native TRPM8 channel (Homo sapiens, UniProt Q7Z2W7); details: CI, cited from earlier work
[8] = target: T2, native TRPM8 channel; details: EP, cited from earlier work
[9] = target: T2, native TRPM8 channel; details: read-out: IC50 menthol; SF; 20 μM menthol at 22° C.; Ortar et al. 2010; cited from earlier work
[10] = target: T2, native TRPM8 channel; details: read-out: IC50 menthol; 100 μM menthol; FL; Behrendt et al. 2004; cited from earlier work
[11] = cold, Malkia et al. 2007, read-out: IC50 cold
[12] = cold, +80 mV, Malkia et al. 2007, read-out: IC50 cold
[13] = read-out: IC50 menthol, 100 μM menthol, −70 mV, Weil 2005

T1 sequence (Q7Z2W7 whole entry): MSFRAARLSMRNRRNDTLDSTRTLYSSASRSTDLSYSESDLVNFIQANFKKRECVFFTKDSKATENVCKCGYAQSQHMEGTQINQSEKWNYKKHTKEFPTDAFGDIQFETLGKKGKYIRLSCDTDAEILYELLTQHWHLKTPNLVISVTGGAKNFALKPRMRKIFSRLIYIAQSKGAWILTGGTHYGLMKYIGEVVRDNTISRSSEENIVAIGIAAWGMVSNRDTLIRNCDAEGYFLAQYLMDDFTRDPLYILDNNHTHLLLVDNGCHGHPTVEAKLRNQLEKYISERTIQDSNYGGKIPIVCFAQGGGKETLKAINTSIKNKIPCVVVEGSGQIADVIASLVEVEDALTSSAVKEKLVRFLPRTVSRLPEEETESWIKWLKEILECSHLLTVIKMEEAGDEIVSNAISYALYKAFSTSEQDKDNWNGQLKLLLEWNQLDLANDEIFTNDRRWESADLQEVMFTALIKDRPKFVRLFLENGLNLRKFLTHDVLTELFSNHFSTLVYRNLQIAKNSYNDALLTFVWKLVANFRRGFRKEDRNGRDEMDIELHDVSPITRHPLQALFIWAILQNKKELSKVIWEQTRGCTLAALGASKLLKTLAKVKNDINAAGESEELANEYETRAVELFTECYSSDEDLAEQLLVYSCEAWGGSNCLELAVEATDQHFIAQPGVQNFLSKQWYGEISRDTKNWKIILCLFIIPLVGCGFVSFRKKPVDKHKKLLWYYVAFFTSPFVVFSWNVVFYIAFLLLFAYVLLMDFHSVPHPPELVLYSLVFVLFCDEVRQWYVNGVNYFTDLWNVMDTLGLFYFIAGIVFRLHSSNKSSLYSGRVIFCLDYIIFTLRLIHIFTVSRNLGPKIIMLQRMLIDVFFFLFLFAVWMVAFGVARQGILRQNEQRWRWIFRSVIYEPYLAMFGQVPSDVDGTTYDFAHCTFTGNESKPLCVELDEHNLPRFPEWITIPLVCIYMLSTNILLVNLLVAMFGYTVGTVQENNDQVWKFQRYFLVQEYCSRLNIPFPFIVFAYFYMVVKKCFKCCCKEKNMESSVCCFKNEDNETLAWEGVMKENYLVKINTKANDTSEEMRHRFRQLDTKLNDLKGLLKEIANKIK
T2 sequence (Q7Z2W7 whole entry): as above

## CC(C)[C@@H]1CC[C@@H](C)CC12OCC(CO)O2 (mixture of isomers) [Frescolat MGA]
[1]
  EC50: 4.8 ± 1.1 µM

## CC(C)[C@@H]1CC[C@@H](C)C[C@H]1OCC(O)CO (mixture of isomers) [Cooling Agent 10]
[1]
  EC50: 6 ± 2.2 µM

## CC(C)[C@@H]1CC[C@@H](C)C[C@H]1O (relative stereo) [Menthol]
[2]; during perfusion with menthol 50 μM, 5% before treatment
  percentage of terminals with a bursting firing pattern at 34° C.: 44%
[2]; menthol 50 μM, control 23.8±0.4
  temperature of silencing during cooling ramps: 25.2±0.4 °C
[2]; menthol 50 μM, control 26.7±0.5, n=44
  temperature at which peak frequency is reached during cooling ramps: 28.6±0.5 °C
[2]; menthol 50 μM, from 3.4±0.3 before, n=44
  spontaneous activity: 18.4±1.4 impulses/s
[2]; menthol 50 μM, n=44
  tested endings with increased spontaneous activity: 98%
[3]; 50 μM menthol perfusion, TRPM8(−/−) corneas, n=6
  trigger frequency at basal temperature of 34° C. or during cooling ramps: no increase
[3]; menthol 50 μM, TRPM8(+/−) mice, significantly less than in TRPM8(+/+)
  trigger frequency in basal temperature, cold threshold and peak frequency: enhanced

## COc1ccc(NC(=O)[C@@H]2C[C@H](C)CC[C@H]2C(C)C)cc1 (stereo in doubt) [WS-12, 2-isopropyl-5-methyl-cyclohexanecarboxylic acid (4-methoxyphenyl)-amide]
[4]
  EC50: 0.193 µM
[5]; data from Beck et al., 2007
  EC50: 0.039 µM
[5]; data from Bodding et al., 2007
  EC50: 0.68 µM

## C=CCN=C=S [AITC, allyl-isothiocyanate]
[2]; AITC 100 μM, 28 cold-sensitive nerve endings tested
  effect on spontaneous or cold-evoked activity: failed to modify the spontaneous or cold-evoked activity in 24 of them
[2]; AITC 100 μM, of 28 endings tested
  nerve endings with significant increase in trigger frequency at basal temperature: four
[6]
  tear flow: significantly increased

## CC(C)(C)c1ccc(NC(=O)N2CCN(c3ncccc3Cl)CC2)cc1 [BCTC, N-(4-tert-butyl-phenyl)-4-(3-chloropyridin-2-yl) tetrahydropyrazine-1(2H)-carboxamide]
[2]; BCTC 10 μM perfusion during 90 min
  spontaneous activity and trigger frequency of cold- and menthol-evoked discharges: decreased gradually and almost silenced
[2]; BCTC 10 μM, TRPA1(−/−) mice
  effects of BCTC on nerve ending activity in TRPA1(−/−) mice: also observed
[2]; after BCTC 10 μM removal
  decline in activity upon removal of the drug: reversed partially
[7]; [11]
  IC50: 0.68 ± 0.06 µM
[8]; [12]
  IC50: 0.54 ± 0.04 µM
[8]; read-out: IC50 menthol, 100 μM menthol, +80 mV, modified by Madrid 2006
  IC50: 0.34 ± 0.04 µM

## CCOC(=O)C(C)NC(=O)C1C[C@H](C)CC[C@H]1C(C)C (some centres unmarked) [CPS-369]
[4]
  EC50: 3.6 µM

## C[C@@H]1CN(c2ncccc2Cl)CCN1C(=O)Nc1ccc(C(F)(F)F)cc1 [CTPC, (2R)-4-(3-chloro-2-pyridinyl)-2-methyl-N-[4-(trifluoromethyl)phenyl]-1-pyperazine-carboxamide]
[8]; [13]
  IC50: 0.131 ± 0.014 µM

## Oc1cc2c(cc1O)CN(C(=S)NCCc1ccc(Cl)cc1)CCC2 [Capsazepine, N-[2-(4-chlorophenyl)ethyl]-1,3,4,5-tetrahydro-7,8-dihydroxy-2H-2-benzazepine-2-carbothioamide]
[7]; cold, Malkia et al. 2009, read-out: IC50 cold
  IC50: 12 ± 2 µM

## Clc1ccccc1C(c1ccccc1)(c1ccccc1)n1ccnc1 [Clotrimazole, 1-[(2-chlorophenyl)diphenylmethyl]-1H-imidazol]
[8]; read-out: IC50 menthol, 100 μM menthol, +50 mV, Meseguer et al. 2008
  IC50: 1.2 µM

## Nc1ccncc1 [Compound 4-AP, 4-aminopyridine]
[2]; 4-AP 100 μM
  cold threshold of the endings: no parallel changes
[2]; 4-AP 100 μM, n=9
  mean peak frequency of cold responses depressed: 39±6 % of the control value
[2]; 4-AP 100 μM, nine studied units
  units with significantly increased spontaneous activity: three out of nine

## CC12CCC(CC1)C(C)(C)O2 [Eucalyptol]
[1]
  EC50: 7700 ± 2000 µM
[5]; data from McKemy et al., 2002
  EC50: 3400 ± 400 µM

## CC(O)C(=O)O[C@@H]1C[C@H](C)CC[C@H]1C(C)C (some centres unmarked) [Frescolat ML]
[1]
  EC50: 3.3 ± 1.5 µM

## CC(CC=O)CCCC(C)(C)O (centres unmarked) [Hydroxyl-citronellal]
[1]
  EC50: 19600 ± 2200 µM

## C=C[C@@](C)(O)CCC=C(C)C [Linalool, Linallol]
[1]
  EC50: 6700 ± 2000 µM

## CC(C)[C@@H]1CC[C@@H](C)C[C@H]1NC(=O)c1ccc(-c2ccccc2)cc1 [MAD1d, N-[(1R,2S,5R)-2-Isopropyl-5-methylcyclohexyl]biphenyl-4-carboxamide]
[9]
  IC50: 0.02 ± 0.0024 µM

## CC1CCC(C(C)(C)O)C(O)C1 (centres unmarked) [PMD-38, p-menthane-3,8-diol]
[1]
  EC50: 31 ± 1.1 µM

## c1cnc2c(c1)ccc1cccnc12 [Phenanthroline]
[7]; [11]
  IC50: 100 ± 20 µM
[8]; [12]
  IC50: 180 ± 20 µM

## CCN(CCNC(=O)Nc1ccccc1Br)c1cccc(C)c1 [SB-452533, N-(2-bhromophenyl)-N′-(2-[ethyl(3-methylphenyl)amino]ethyl)urea]
[8]; [13]
  IC50: 0.571 ± 0.077 µM

## COc1ccc(CCCOC(Cn2ccnc2)c2ccc(OC)cc2)cc1 (centres unmarked) [SKF96365]
[7]; [11]
  IC50: 1 ± 0.2 µM
[7]; read-out: IC50 menthol, 100 μM menthol, modified by Madrid 2006
  IC50: 3 ± 1 µM
[8]; [12]
  IC50: 0.8 ± 0.1 µM

## CCNC(=O)C1CC(C)CCC1C(C)C (centres unmarked) [WS-3, N-ethyl-p-menthane-3-carboxamide]
[1]
  EC50: 3.7 ± 1.7 µM

## CC1CCC(C(C)C)C(C(=O)NC(C)(C)CO)C1 (centres unmarked) [WS-11, 2-isopropyl-5-methyl-cyclohexanecarboxylic acid (2-hydroxy-1,1-dimethyl-ethyl)-amide]
[5]; data from Beck et al., 2007
  EC50: 6.25 µM

## CC1CCC(C(C)C)C(C(=O)NC(C)(C)C)C1 (centres unmarked) [WS-14, 2-isopropyl-5-methyl-cyclohexanecarboxylic acid tert-butylamide]
[5]; data from Beck et al., 2007
  EC50: 21.2 µM

## CC1CCC(C(C)C)C(C(=O)OCC(O)CO)C1 (centres unmarked) [WS-30, 2-isopropyl-5-methyl-cyclohexanecarboxylic acid ester 2,3-dihydroxy-propyl]
[4]
  EC50: 5.6 µM

## CCCCCCCP(=O)(C(C)CC)C(C)CC (centres unmarked) [WS-148, 1-(di-sec-butyl-phosphinoyl)-heptane]
[4]
  EC50: 4.1 µM

## COc1cc(CNC(=O)CCCC/C=C/C(C)C)ccc1O [capsaicin]
[2]; 100 nM capsaicin, wild-type mice
  cold-sensitive endings that responded: 65%
[6]
  tear flow: significantly increased
[3]; capsaicin 100 nM, TRPM8(−/−) corneas, six units tested
  impulse discharge evoked in active units: evoked a few impulses in two endings (5 and 8 impulses, respectively) and a vigorous, discharge lasting more than 30 s in another

## CC(C)(C)c1ccc(NC(=S)N2CCN(c3ncccc3Cl)CC2)cc1 [thio-BCTC, N-(4-tert-butyl-phenyl)-4-(3-chloropyridin-2-yl) tetrahydropyrazine-1(2H)-(thio)carboxamide]
[10]
  IC50: 3.5 ± 1.1 µM
